Read-outs that look alike come from different tables or passages of the source.

One series has as its target T1, bovine GnRH receptor (Bos taurus, UniProt P32236).
T1 construct: membranes were prepared from bovine pituitary; from tissue; host or cells: bovine pituitary
T1 sequence (P32236 1-328): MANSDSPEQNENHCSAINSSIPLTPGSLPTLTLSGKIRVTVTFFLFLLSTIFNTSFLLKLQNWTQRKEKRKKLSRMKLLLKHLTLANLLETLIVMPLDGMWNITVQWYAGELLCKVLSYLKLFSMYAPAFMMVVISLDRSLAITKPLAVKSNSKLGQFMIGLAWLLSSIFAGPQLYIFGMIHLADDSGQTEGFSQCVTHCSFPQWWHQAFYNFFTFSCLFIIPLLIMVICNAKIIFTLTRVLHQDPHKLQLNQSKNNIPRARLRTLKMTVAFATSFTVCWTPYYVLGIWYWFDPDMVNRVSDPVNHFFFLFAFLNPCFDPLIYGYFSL
Description: Radioligand binding, 125I-GnRH-A, bovine pituitary membranes. On the procedure:
All compounds were diluted in 1% DMSO (final assay concentration) in binding assay buffer. […] Reactions were terminated by rapid filtration onto 96-well Packard GF/C filters soaked in 0.1% polyethyleneimine. Filters were washed three times with PBS buffer, dried and counted on a Packard Topcount by liquid scintillation counting.
Assay conditions were identical for assessing compound activities at other species. […] IC50 values for control peptides and test compounds were calculated utilizing GraphPad Prism™ software.
The reaction mixture was vortexed and incubated for 1 min at room temperature. After one min, the mixture was vortexed and allowed to incubate for an additional minute. 2 ml of 0.5 M acetic acid/1% BSA was added to the reaction tube and the mixture was added to a C18 Sep-Pak cartridge. The cartridge was washed with subsequent washes of 5 ml H2O and 5 ml 0.5M acetic acid and then eluted with 5×1 ml of 60% CH3CN/40% 0.5M acetic acid. The eluate was diluted with 3× volume of HPLC buffer A (0.1% TFA in H2O) and loaded onto a C18 column. […] The radioactive fractions (750 ed/fraction) are collected into clean polypropylene tubes containing 100 μl of 10% BSA. Fractions were assessed for biological activity by radioligand binding.

A further series addresses T2, rat GnRH receptor (Rattus norvegicus, UniProt P30969).
T2 sequence (P30969 1-327): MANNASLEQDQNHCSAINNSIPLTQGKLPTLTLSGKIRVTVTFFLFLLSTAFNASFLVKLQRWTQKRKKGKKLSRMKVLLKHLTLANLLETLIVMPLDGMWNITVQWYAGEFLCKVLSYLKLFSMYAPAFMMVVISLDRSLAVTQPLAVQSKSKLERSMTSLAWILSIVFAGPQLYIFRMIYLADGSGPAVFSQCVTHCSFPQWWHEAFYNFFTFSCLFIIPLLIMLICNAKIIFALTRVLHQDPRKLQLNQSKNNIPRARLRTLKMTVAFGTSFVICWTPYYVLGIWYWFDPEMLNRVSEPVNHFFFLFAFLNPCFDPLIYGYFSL
Description: Radioligand binding, 125I-GnRH-A, rat pituitary membranes. Further details: membranes were prepared from rat pituitary; from tissue; host or cells: rat pituitary. The procedure, abridged:
(§1)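 Bound label captured on 0.1% polyethyleneimine-treated GF/C filters, washed three times with PBS, counted. IC50 derived; identical set-up for every species.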

In a further series the target is T3, mouse GnRH receptor (Mus musculus, UniProt Q01776).
T3 construct: expressed in transfected cells; host or cells: 293 cells
T3 sequence (Q01776 1-327): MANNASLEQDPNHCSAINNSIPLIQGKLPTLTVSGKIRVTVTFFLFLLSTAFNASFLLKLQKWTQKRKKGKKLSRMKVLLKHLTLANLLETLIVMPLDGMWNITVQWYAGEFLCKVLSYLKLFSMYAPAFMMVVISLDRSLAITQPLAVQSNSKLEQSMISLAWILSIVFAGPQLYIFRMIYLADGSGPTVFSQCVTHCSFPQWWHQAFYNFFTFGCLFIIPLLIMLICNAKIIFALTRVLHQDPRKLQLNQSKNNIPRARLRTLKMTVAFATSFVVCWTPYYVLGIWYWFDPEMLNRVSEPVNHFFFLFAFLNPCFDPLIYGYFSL
Description: Radioligand binding, 125I-GnRH-A, 293 cells expressing mouse GnRH receptors. The gist of the method: as §1

For a further series, the target named is T4, human GnRH receptor (Homo sapiens, UniProt P30968).
T4 construct: expressed in transfected cells; host or cells: HEK 293 (hGnRH-R/293, from Dr. Stuart Sealfon)
T4 sequence (P30968 1-328): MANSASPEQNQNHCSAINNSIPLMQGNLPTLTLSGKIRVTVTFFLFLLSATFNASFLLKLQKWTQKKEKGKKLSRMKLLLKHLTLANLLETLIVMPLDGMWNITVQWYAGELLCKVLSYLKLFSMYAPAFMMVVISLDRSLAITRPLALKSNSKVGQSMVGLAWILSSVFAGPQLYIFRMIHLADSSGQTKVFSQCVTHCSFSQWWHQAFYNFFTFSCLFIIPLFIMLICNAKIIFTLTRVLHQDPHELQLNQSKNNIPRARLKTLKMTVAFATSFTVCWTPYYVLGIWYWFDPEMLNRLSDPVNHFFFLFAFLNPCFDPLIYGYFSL
Description: Radioligand binding, 125I-GnRH-A displacement, membranes of HEK 293 cells with human GnRH receptor. The procedure, abridged: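 Bound tracer was separated by filtration through polyethyleneimine-soaked GF/C filters and counted by liquid scintillation. IC50 from curve fitting; other species were tested under the same conditions.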

The nature of series [1]: Metabolism rate, pmol/min/mg at 1 μM, rat male. It is filed as in vitro ADME. To be noted: 1 μM compound.
Series [2] is described as follows: Metabolism rate, pmol/min/mg at 1 μM, human. It is filed as in vitro ADME. Conditions: 1 μM compound.

`COc1cccc(CNC(=O)c2ccc(Cc3cc4c(cc3C)C(C)(C)CCC4(C)C)o2)c1OC` [Compound 15]: the IC50 (usually the point on the concentration scale where inhibition reaches its midpoint) at bovine GnRH receptor (means ± SE of at least three experiments performed in duplicate, read-out: Bovine IC50) turned out to be 1 ± 0.24 µM; on rat GnRH receptor (means ± SE of at least three experiments performed in duplicate, read-out: Rat IC50) it was 0.07 ± 0.016 µM; at mouse GnRH receptor (means ± SE of at least three experiments performed in duplicate, read-out: Mouse IC50), 0.22 ± 0.05 µM; at human GnRH receptor (means ± SE of at least three experiments performed in duplicate, read-out: Human IC50), 0.1 ± 0.017 µM; on human GnRH receptor (read-out: hGnRH IC50) it was 0.29 µM.
On to `Cc1cc2c(cc1Cc1ccc(C(=O)NCC3CCCC(CNC(=N)N)C3)o1)C(C)(C)CCC2(C)C` (stereo not drawn) [Compound 22], for which the IC50 on bovine GnRH receptor (read-out: bGnRH IC50) is 1.71 µM; on rat GnRH receptor (read-out: rGnRH IC50), 0.31 µM; at mouse GnRH receptor (read-out: mGnRH IC50), 1.1 µM; on human GnRH receptor (read-out: hGnRH IC50) it was 0.54 µM.
The like results for `Cc1cc2c(cc1Cc1ccc(C(=O)NCc3cccc(CNC(=N)N)c3)o1)C(C)(C)CCC2(C)C` [Compound 24] were, in that order, 0.76 µM, 0.15 µM, 0.56 µM and 0.55 µM.
Turning to `Cc1cc2c(cc1Cc1ccc(C(=O)NCc3ccc(CNC(=N)N)cc3)o1)C(C)(C)CCC2(C)C` [Compound 25], the IC50 on bovine GnRH receptor (read-out: bGnRH IC50) came out at 0.94 µM; on rat GnRH receptor (read-out: rGnRH IC50) it was 0.26 µM; at mouse GnRH receptor (read-out: mGnRH IC50) it was 0.95 µM; at human GnRH receptor (read-out: hGnRH IC50), 0.41 µM.
With `Cc1cc2c(cc1Cc1ccc(C(=O)NCc3cccc(Cl)c3)o1)C(C)(C)CCC2(C)C` [Compound 39], the IC50 on bovine GnRH receptor (read-out: bGnRH IC50) worked out at 2.34 µM; on rat GnRH receptor (read-out: rGnRH IC50) it was 0.22 µM; at mouse GnRH receptor (read-out: mGnRH IC50), 0.83 µM; on human GnRH receptor (read-out: hGnRH IC50) it was 0.19 µM.
For the molecule `Cc1cc2c(cc1Cc1ccc(C(=O)NCc3cccnc3)o1)C(C)(C)CCC2(C)C` [Compound 43], the IC50 on bovine GnRH receptor (read-out: bGnRH IC50) turned out to be 4 µM; on rat GnRH receptor (read-out: rGnRH IC50) it was 0.33 µM; on mouse GnRH receptor (read-out: mGnRH IC50) it was 0.63 µM; on human GnRH receptor (read-out: hGnRH IC50), 0.32 µM; on human GnRH receptor (second value marked * (mostly in parentheses), asterisk not explained, read-out: hGnRH IC50, value marked *), 0.13 µM.
In the case of `Cc1ccccc1CNC(=O)c1ccc(Cc2cc3c(cc2C)C(C)(C)CCC3(C)C)o1` [Compound 50], the IC50 at bovine GnRH receptor (read-out: bGnRH IC50) is 1.52 µM; on rat GnRH receptor (read-out: rGnRH IC50), 0.15 µM; at mouse GnRH receptor (read-out: mGnRH IC50), 0.37 µM; at human GnRH receptor (read-out: hGnRH IC50), 0.23 µM.
The like results for `Cc1cc2c(cc1Cc1ccc(C(=O)NCc3ccc(F)cc3F)o1)C(C)(C)CCC2(C)C` [Compound 52] were, in that order, 2.9 µM, 0.27 µM, 0.66 µM and 0.28 µM.
`Cc1cc2c(cc1Cc1ccc(C(=O)Nc3ccc4[nH]ccc4c3)o1)C(C)(C)CCC2(C)C` [Compound 96]: in series [1], the “Rat male pmol/min/mg 1 μM” value worked out at 1692 pmol/min/mg. Besides, the IC50 on rat GnRH receptor (read-out: rGnRH IC50) amounted to 0.09 µM; at mouse GnRH receptor (read-out: mGnRH IC50), 0.13 µM; on human GnRH receptor (read-out: hGnRH IC50) it was 0.04 µM. Further, in series [2], the “Human pmol/min/mg 1 μM” value came to 182 pmol/min/mg.

These data come from patent US7101878B1 (Agouron Pharmaceuticals, Inc., priority 1998, dated 2006).
